Source: patent US5397781A, “Pyrimidine derivatives” (Mochida Pharmaceutical Company, Limited, priority 1992, dated 1995)

Molecular target: T1, ACAT (Rattus norvegicus, UniProt Q7TQM4)
T1 construct: Liver microsomes as an enzyme sample of ACAT were prepared from overnight-fasted male rats; from tissue; host or cells: liver of overnight-fasted male rats, 6 weeks old; microsomes
T1 sequence (Q7TQM4 1-524): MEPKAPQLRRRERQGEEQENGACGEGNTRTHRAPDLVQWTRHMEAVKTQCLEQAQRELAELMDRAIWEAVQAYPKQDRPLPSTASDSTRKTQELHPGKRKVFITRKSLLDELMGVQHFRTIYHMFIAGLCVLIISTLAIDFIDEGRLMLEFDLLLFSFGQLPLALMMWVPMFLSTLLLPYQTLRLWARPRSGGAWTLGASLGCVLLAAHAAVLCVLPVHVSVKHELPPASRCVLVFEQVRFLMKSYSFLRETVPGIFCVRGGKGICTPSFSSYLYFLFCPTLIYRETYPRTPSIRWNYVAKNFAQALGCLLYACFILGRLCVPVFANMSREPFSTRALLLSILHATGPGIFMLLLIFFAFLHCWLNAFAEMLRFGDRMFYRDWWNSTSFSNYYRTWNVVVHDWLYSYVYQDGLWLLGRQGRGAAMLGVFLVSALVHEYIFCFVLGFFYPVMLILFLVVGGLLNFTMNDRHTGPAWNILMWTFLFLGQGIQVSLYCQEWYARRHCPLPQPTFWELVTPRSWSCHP
Test: Inhibitory effect on microsomal ACAT activity in rat liver
Assay type: biochemical
Conditions: rat liver microsomes; read-out: IC50 (50% inhibition of cholesterol esterification)

| Structure (SMILES) | IC50 [nM] |
| --- | --- |
| CCCN(CC(=O)Nc1c(S)nc(C)nc1N(CC)CC)c1ccccc1 [Example 133, N-[4-(N,N-diethylamino)-6-mercapto-2-methylpyrimidin-5-yl]-2-(N-phenyl-N-propylamino)acetamide] | 260 |
| CCCN(CCCC(=O)Nc1c(S)nc(C)nc1N(CC)CC)c1ccccc1 [Example 145, N-[4-(N,N-diethylamino)-6-mercapto-2-methylpyrimidin-5-yl]-4-(N-phenyl-N-propylamino)butanamide] | 80 |
| CCCCN(CCCC)c1nc(C)nc(S)c1NC(=O)CCCN(CCC)c1ccccc1 [Example 146, N-[4-(N,N-dibutylamino)-6-mercapto2-methylpyrimidin-5-yl]-4-(N-phenyl-N-propylamino)butanamide] | 110 |
| CCCCCCN(CCCC(=O)Nc1c(S)nc(C)nc1N(CCC)CCC)c1ccccc1 [Example 156, N-[4-(N,N-dipropylamino)-6-mercapto-2-methylpyrimidin-5-yl]-4-(N-hexyl-N-phenylamino)butanamide] | 38 |
| CCCCCCN(CCCC(=O)Nc1c(OC)nc(C)nc1N(CC)CC)c1ccccc1 [Example 166, N-[4-(N,N-diethylamino)-6-methoxy-2-methylpyrimidin-5-yl]-4-(N-hexyl-N-phenylamino)butanamide] | 81 |
| CCCCCCN(CCCC(=O)Nc1c(OC)nc(C)nc1N(CCC)CCC)c1ccccc1 [Example 167, N-[4-(N,N-dipropylamino)-6-methoxy-2-methylpyrimidin-5-yl]-4-(N-hexyl-N-phenylamino)butanamide] | 43 |
| CCCCCCN(CCCC(=O)Nc1c(OC)nc(SC)nc1N(CC)CC)c1ccccc1 [Example 168, N-[4-(N,N-diethylamino)-6-methoxy-2-methylthiopyrimidin-5-yl]-4-(N-hexyl-N-phenylamino)butanamide] | 87 |
| CCCN(CCCC(=O)Nc1c(S)nc(C)nc1N(CC)CC)c1ccc(OC)cc1 [Example 173, N-[4-(N,N-diethylamino)-6-mercapto-2-methylpyrimidin-5-yl]-4-[N-(4-methoxyphenyl)-N-propylamino]butanamide] | 170 |
| CCCN(CCCC(=O)Nc1c(S)nc(C)nc1N(CC)CC)c1ccc(F)cc1F [Example 180, N-[4-(N,N-diethylamino)-6-mercapto-2-methylpyrimidin-5-yl]-4-[N-(2,4-difluorophenyl)-N-propylamino]butanamide] | 200 |
| CCCCCCCN(CCCC(=O)Nc1c(S)nc(C)nc1N(CC)CC)Cc1ccccc1 [Example 182, 4-(N-benzyl-N-heptylamino)-N-[4-(N,N-diethylamino)-6-mercapto-2-methylpyrimidin-5-yl]butanamide] | 220 |
| CCN(CC)c1nc(C)nc(S)c1NC(=O)CCCN1CCCc2ccccc21 [Example 183, N-[4-(N,N-diethylamino)-6-mercapto-2-methylpyrimidin-5-yl]-4-(tetrahydroquinolino)butanamide] | 280 |
| CCCN(CCCCC(=O)Nc1c(S)nc(C)nc1N(CCC)c1ccccc1)c1ccccc1 [Example 185, N-[4-mercapto-2-methyl-6-(N-phenyl-N-propylamino)pyrimidin-5-yl]-5-(N-phenyl-N-propylamino)pentanamide] | 79 |
| CCCN(CCCCC(=O)Nc1c(S)nc(C)nc1N(CC)CC)c1ccccc1 [Example 187, N-[4-(N,N-diethylamino)-6-mercapto-2-methylpyrimidin-5-yl]-5-(N-phenyl-N-propylamino)pentanamide] | 47 |
| CCCN(CCCCC(=O)Nc1c(S)nc(C)nc1N(CCC)CCC)c1ccccc1 [Example 188, N-[4-(N,N-dipropylamino)-6-mercapto-2-methylpyrimidin-5-yl]-5-(N-phenyl-N-propylamino)pentanamide] | 35 |
| CCCCN(CCCC)c1nc(C)nc(OC)c1NC(=O)CCCCN(CCC)c1ccccc1 [Example 195, N-[4-(N,N-dibutylamino)-6-methoxy-2-methylpyrimidin-5-yl]-5-(N-phenyl-N-propylamino)pentanamide] | 47 |
| CCCCN(CCCC)c1ncnc(OCC)c1NC(=O)CCCCN(CCC)c1ccccc1 [Example 197, N-[4-(N,N-dibutylamino)-6-ethoxypyrimidin-5-yl]-5-(N-phenyl-N-propylamino)pentanamide] | 8.8 |
| CCCN(CCCCCC(=O)Nc1c(S)nc(C)nc1N(CCC)c1ccccc1)c1ccccc1 [Example 205, N-[4-mercapto-2-methyl-6-(N-phenyl-N-propylamino)pyrimidin-5-yl]-6-(N-phenyl-N-propylamino)hexanamide] | 280 |

| Structure (SMILES) | IC50 [nM] |
| --- | --- |
| CCCN(CC(=O)Nc1c(SC)nc(C)nc1N(CC)CC)Cc1ccccc1 [Example 210, 2-(N-benzyl-N-propylamino) N-[4-(N,N-diethylamino)-2-methyl-6-methylthiopyrimidin-5-yl]acetamide] | 470 |
| CCCN(CCCC(=O)Nc1c(SC)nc(C)nc1N(CCC)c1ccccc1)c1ccccc1 [Example 218, N-[2-methyl-4-methylthio-6-(N-phenyl-N-propylamino)pyrimidin-5-yl]-4-(N-phenyl-N-propylamino)butanamide] | 430 |
| CCN(CC)c1nc(C)nc(SC)c1NC(=O)CCCN(C)c1ccccc1 [Example 224, N-[4-(N,N-diethylamino)-2-methyl-6-methylthiopyrimidin-5-yl]-4-(N-methyl-N-phenylamino)butanamide] | 220 |
| CCCCCCN(CCCC(=O)Nc1c(SC)nc(C)nc1N(CCC)CCC)c1ccccc1 [Example 226, N-[4-(N,N-dipropylamino)-2-methyl-6-methylthiopyrimidin-5-yl]-4-(N-hexyl-N-phenylamino)butanamide] | 16 |
| CCCCCCN(CCCC(=O)Nc1c(SC)nc(C)nc1N(CCCC)CCCC)c1ccccc1 [Example 227, N-[4-(N,N-dibutylamino)-2-methyl-6-methylthiopyrimidin-5-yl]-4-(N-hexyl-N-phenylamino)butanamide] | 110 |
| CCCCCCN(CCCC(=O)Nc1c(SC)nc(SC)nc1N(CC)CC)c1ccccc1 [Example 234, N-[4-(N,N-diethylamino)-2,6-bis(methylthio)pyrimidin-5-yl]-4-(N-hexyl-N-phenylamino)butanamide] | 25 |
| CCN(CC)c1nc(C)nc(SC)c1NC(=O)CCCN(c1ccccc1)C1CCCCCC1 [Example 235, 4-(N-cycloheptyl-N-phenylamino)-N-[4-(N,N-diethylamino)-2-methyl-6-methylthiopyrimidin-5-yl]butanamide] | 26 |
| CCCCCCCCCCN(CCCC(=O)Nc1c(SC)nc(C)nc1N(CC)CC)c1ccccc1 [Example 236, 4-(N-decyl-N-phenylamino)-N-[4-(N,N-diethylamino)-2-methyl-6-methylthiopyrimidin-5-yl]butanamide] | 32 |
| CCCCc1ccc(N(CCC)CCCC(=O)Nc2c(SC)nc(C)nc2N(CC)CC)cc1 [Example 237, 4-[N-(4-butylphenyl)-N-propylamino]-N-[4-(N,N-diethylamino)-2-methyl-6-methylthiopyrimidin-5-yl]butanamide] | 83 |
| CCCCCCN(CCCC(=O)Nc1c(SC)nc(C)nc1N(CC)CC)c1ccc(OC)cc1 [Example 239, N-[4-(N,N-diethylamino)-2-methyl-6-methylthiopyrimidin-5-yl]-4-[N-hexyl-N-(4-methoxyphenyl)amino]butanamide] | 120 |
| CCCN(CCCC(=O)Nc1c(SC)nc(C)nc1N(CC)CC)c1ccc(F)cc1F [Example 241, N-[4-(N,N-diethylamino)-2-methyl-6-methylthiopyrimidin-5-yl]-4-[N-(2,4-difluorophenyl)-N-propylamino]butanamide] | 76 |
| CCCN(CCCC(=O)Nc1c(SC)nc(C)nc1N(CC)CC)Cc1ccccc1 [Example 242, 4-(N-benzyl-N-propylamino)-N-[4-(N,N-diethylamino)-2-methyl-6-methylthiopyrimidin-5-yl]butanamide] | 220 |
| CCCCCCCN(CCCC(=O)Nc1c(SC)nc(C)nc1N(CC)CC)Cc1ccccc1 [Example 243, 4-(N-benzyl-N-heptylamino)-N-[4-(N,N-diethylamino)-2-methyl-6-methylthiopyrimidin-5-yl]butanamide] | 95 |
| CCN(CC)c1nc(C)nc(SC)c1NC(=O)CCCN1CCCc2ccccc21 [Example 244, N-[4-(N,N-diethylamino)-2-methyl-6-methylthiopyrimidin-5-yl]-4-(N-tetrahydroquinolino)butanamide] | 190 |
| CCCN(CCCCC(=O)Nc1c(SC)nc(C)nc1N(CC)CC)c1ccccc1 [Example 245, N-[4-(N,N-diethylamino)-2-methyl-6-methylthiopyrimidin-5-yl]-5-(N-phenyl-N-propylamino)pentanamide] | 64 |
| CCCN(CCCCC(=O)Nc1c(SC)nc(C)nc1N(CCC)CCC)c1ccccc1 [Example 246, N-[4-(N,N-dipropylamino)-2-methyl-6-methylthiopyrimidin-5-yl]-5-(N-phenyl-N-propylamino)pentanamide] | 14 |
| CCCN(CCCCC(=O)Nc1c(SC)nc(C)nc1N(CC)Cc1ccccc1)c1ccccc1 [Example 248, N-[4-(N-benzyl-N-ethylamino)-2-methyl-6-methylthiopyrimidin-5-yl]-5-(N-phenyl-N-propylamino)pentanamide] | 32 |
